From ChEMBL document CHEMBL1132674, “Design, synthesis and DNA-cleavage of Gly-Gly-His-naphthalene diimide conjugates” (Bioorg Med Chem Lett, 1999)

Assay: Binding constant of the compound

| Binding constant [M⁻¹] | SMILES |
| --- | --- |
| 100000 | CN(CCCNC(=O)C(Cc1c[nH]cn1)NC(=O)CNC(=O)CN)CCCN1C(=O)c2ccc3c4c(ccc(c24)C1=O)C(=O)N(CCCN(C)CCCNC(=O)C(Cc1c[nH]cn1)NC(=O)CNC(=O)CN)C3=O (configuration not stated) |
| 100000 | CN(CCCN)CCCN1C(=O)c2ccc3c4c(ccc(c24)C1=O)C(=O)N(CCCN(C)CCCNC(=O)C(Cc1c[nH]cn1)NC(=O)CNC(=O)CN)C3=O (configuration not stated) |
